This passage reports T/C results from PubChem BioAssay AID330 (DTP/NCI, 2004).

The subject of this assay is P388 leukemia ip, CD2F1 mice, survival T/C. Kind of assay: NCI In Vivo Anticancer Drug Screen. Data for tumor model P388 Leukemia (intraperitoneal) in CD2F1 (CDF1) mice. As to conditions: endpoint: median survival time, higher = longer survival. In a few lines: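 Mice carrying the transplanted tumor received test compound or vehicle. Survival was recorded in each group, and the value is the treated-group measurement divided by that of the vehicle-treated control group.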

The mark [1] stands for this setting: dose: 100.0 mg/kg/injection, schedule: Q01DX009 (ip), vehicle: saline.
Where [2] appears, read: dose: 100.0 mg/kg/injection, schedule: Q04DX003 (ip), vehicle: saline.
The mark [3] stands for this setting: dose: 200.0 mg/kg/injection, schedule: Q01DX009 (ip), vehicle: saline.
Setting [4] is: dose: 400.0 mg/kg/injection, schedule: Q01DX009 (ip), vehicle: saline.
The mark [5] stands for this setting: dose: 50.0 mg/kg/injection, schedule: Q01DX005 (ip), vehicle: saline with Tween-80.
The mark [6] stands for this setting: dose: 100.0 mg/kg/injection, schedule: Q01DX005 (ip), vehicle: saline with Tween-80.
Where [7] appears, read: dose: 50.0 mg/kg/injection, schedule: Q01DX009 (ip), vehicle: Klucel (hydroxypropylcellulose) (HPC).
[8] abbreviates: dose: 100.0 mg/kg/injection, schedule: Q01DX009 (ip), vehicle: Klucel (hydroxypropylcellulose) (HPC).
Setting [9] is: dose: 200.0 mg/kg/injection, schedule: Q01DX009 (ip), vehicle: Klucel (hydroxypropylcellulose) (HPC).
The mark [10] stands for this setting: dose: 400.0 mg/kg/injection, schedule: Q01DX009 (ip), vehicle: Klucel (hydroxypropylcellulose) (HPC).
[11] abbreviates: dose: 12.5 mg/kg/injection, schedule: Q01DX009 (ip), vehicle: saline.
The mark [12] stands for this setting: dose: 50.0 mg/kg/injection, schedule: Q01DX009 (ip), vehicle: saline.
Setting [13] is: dose: 25.0 mg/kg/injection, schedule: Q01DX009 (ip), vehicle: Klucel (hydroxypropylcellulose) (HPC).

Several values for one entry are separate records, joined by “and”; a condition that tells them apart may be missing. Equal values may be shown once. Toxic doses and inconclusive results are not listed.

As to `CC(C)=CCC1=C(O)c2ccccc2C(=O)C1=O`, the T/C runs as follows: (dose: 75.0 mg/kg/injection, schedule: Q01DX010 (ip), vehicle: other) 120 % of control; under setting [1], 118 % of control; (dose: 100.0 mg/kg/injection, schedule: Q01DX010 (ip), vehicle: other) 110 % of control; under setting [2], 110 % of control; (dose: 125.0 mg/kg/injection, schedule: Q01DX010 (ip), vehicle: other) 120 % of control; under setting [3], 118 % of control. Besides, the T/C reads like this: (dose: 200.0 mg/kg/injection, schedule: Q04DX003 (ip), vehicle: saline) 115 % of control; under setting [4], 95 % of control; (dose: 400.0 mg/kg/injection, schedule: Q04DX003 (ip), vehicle: saline) 120 % of control.

With `O=C(Oc1cccc2cccnc12)c1ccc2ccccc2n1`, the T/C reads like this: (dose: 100.0 mg/kg/injection, schedule: Q04DX002 (ip), vehicle: saline with Tween-80) 100 % of control; (dose: 200.0 mg/kg/injection, schedule: Q04DX002 (ip), vehicle: saline with Tween-80) 96 % of control.

Take `CN(C)c1ccc(C(Cl)[O][Sn]([Cl])([c]2ccccc2)[c]2ccccc2)cc1.[CH3][Sn]([CH3])([Cl])[Cl]` (configuration not stated): the T/C by setting is: (dose: 1.56 mg/kg/injection, schedule: Q01DX005 (ip), vehicle: saline with Tween-80) 112 % of control; (dose: 3.12 mg/kg/injection, schedule: Q01DX005 (ip), vehicle: saline with Tween-80) 113 % of control and 119 % of control; (dose: 6.25 mg/kg/injection, schedule: Q01DX005 (ip), vehicle: saline with Tween-80) 109 % of control.

`COc1ccc2ccc(C=O)cc2c1OC`: the T/C (dose: 25.0 mg/kg/injection, schedule: Q01DX009 (ip), vehicle: other) is 104 % of control; the T/C (dose: 50.0 mg/kg/injection, schedule: Q01DX009 (ip), vehicle: other) is 95 % of control; the T/C (dose: 100.0 mg/kg/injection, schedule: Q01DX009 (ip), vehicle: other) is 103 % of control; the T/C (dose: 200.0 mg/kg/injection, schedule: Q01DX009 (ip), vehicle: other) is 97 % of control; the T/C (dose: 400.0 mg/kg/injection, schedule: Q01DX009 (ip), vehicle: other) was 112 % of control.

As to `CCOC(=O)c1[nH]c2c(cc(C=O)c3ccccc32)c1C`, the T/C by setting is: (dose: 100.0 mg/kg/injection, schedule: Q01DX001 (ip), vehicle: saline with Tween-80) 92 % of control; (dose: 200.0 mg/kg/injection, schedule: Q01DX001 (ip), vehicle: saline with Tween-80) 91 % of control; (dose: 400.0 mg/kg/injection, schedule: Q01DX001 (ip), vehicle: saline with Tween-80) 90 % of control.

Turning to `N=C1C=CC2C(=Nc3ccccc3[N+]2=O)N1CCO` (configuration not stated), the T/C is 99 % of control and 105 % of control (dose: 15.0 mg/kg/injection, schedule: Q01DX005 (ip), vehicle: saline with Tween-80); 101 % of control and 112 % of control (dose: 30.0 mg/kg/injection, schedule: Q01DX005 (ip), vehicle: saline with Tween-80); 100 % of control and 103 % of control (dose: 60.0 mg/kg/injection, schedule: Q01DX005 (ip), vehicle: saline with Tween-80).

On to `COC(=O)/C(C)=N/SC(c1ccccc1)(c1ccccc1)c1ccccc1`, for which the T/C reads like this: under setting [5], 102 % of control; under setting [6], 104 % of control; (dose: 200.0 mg/kg/injection, schedule: Q01DX005 (ip), vehicle: saline with Tween-80) 98 % of control.

For the molecule `CC(N)(CCC(=O)O)C(=O)O` (configuration not stated), the T/C reads like this: under setting [7], 98 % of control; under setting [8], 96 % of control; under setting [9], 97 % of control; under setting [10], 103 % of control.

Take `O=S(=O)(NO)c1cccc(S(=O)(=O)NO)c1`: the T/C reads like this: (dose: 25.0 mg/kg/injection, schedule: Q04DX003 (ip), vehicle: saline) 110 % of control; (dose: 50.0 mg/kg/injection, schedule: Q04DX003 (ip), vehicle: saline) 115 % of control; under setting [2], 110 % of control.

On to `COC(=O)CCCC#C/C=C/CCCC/C=C(Br)\C=C/Br`, for which the T/C (dose: 62.5 mg/kg/injection, schedule: Q01DX009 (ip), vehicle: olive oil, sesame oil, peanut oil) is 101 % of control; the T/C (dose: 125.0 mg/kg/injection, schedule: Q01DX009 (ip), vehicle: olive oil, sesame oil, peanut oil) is 96 % of control; the T/C (dose: 250.0 mg/kg/injection, schedule: Q01DX009 (ip), vehicle: olive oil, sesame oil, peanut oil) is 98 % of control.

On to `Cc1ccc(Cl)cc1NC(=O)COc1ccc(Cl)cc1Cl`, for which the T/C was 100 % of control (dose: 100.0 mg/kg/injection, schedule: Q04DX003 (ip), vehicle: saline with Tween-80); 100 % of control (dose: 200.0 mg/kg/injection, schedule: Q04DX003 (ip), vehicle: saline with Tween-80); 90 % of control (dose: 400.0 mg/kg/injection, schedule: Q04DX003 (ip), vehicle: saline with Tween-80).

`O=C(O)C(O)C1CCCCC1` (configuration not stated): the T/C is 104 % of control (dose: 50.0 mg/kg/injection, schedule: Q01DX009 (ip), vehicle: saline with Tween-80) and 92 % of control (dose: 100.0 mg/kg/injection, schedule: Q01DX009 (ip), vehicle: saline with Tween-80).

On to `C=CCN(CC=C)P(=O)(N1CC1)N1CC1C` (configuration not stated), for which the T/C is, setting by setting: (dose: 0.6 mg/kg/injection, schedule: Q01DX009 (ip), vehicle: saline) 189 % of control; (dose: 0.9 mg/kg/injection, schedule: Q01DX009 (ip), vehicle: saline) 174 % of control.

Take `O=c1[nH]c2c(ccc3cnccc32)c2c1CCC2`: the T/C was 122 % of control under setting [11] and 94 % of control under setting [12].

`Cc1cccc(C)c1-n1c(C)nc2[nH]cc(C)c2c1=N`: the T/C is, setting by setting: (dose: 12.5 mg/kg/injection, schedule: Q01DX005 (ip), vehicle: Klucel (hydroxypropylcellulose) (HPC)) 99 % of control; (dose: 25.0 mg/kg/injection, schedule: Q01DX005 (ip), vehicle: Klucel (hydroxypropylcellulose) (HPC)) 97 % of control; (dose: 50.0 mg/kg/injection, schedule: Q01DX005 (ip), vehicle: Klucel (hydroxypropylcellulose) (HPC)) 100 % of control and 97 % of control.

As for `Ic1ccc(C2CC(c3ccccc3)=NN2c2ccccc2)cc1` (configuration not stated), the T/C is, setting by setting: under setting [13], 97 % of control; under setting [7], 87 % of control; under setting [8], 87 % of control; under setting [9], 90 % of control.

Consider `CC(=O)N1N=C(c2ccc(OCC(O)CN3CCN(CC(O)COc4ccc(C5=NN(C(C)=O)C(c6ccccc6)C5)cc4)CC3)cc2)CC1c1ccccc1` (configuration not stated), for which the T/C was 100 % of control under setting [5] and 86 % of control under setting [6].

In the case of `O=C1N=NC2=C1c1c3ccccc3c(O)n1CC2`, the T/C (dose: 25.0 mg/kg/injection, schedule: Q01DX005 (ip), vehicle: saline with Tween-80) is 99 % of control; the T/C under setting [5] is 101 % of control; the T/C under setting [6] was 95 % of control.

Turning to `O=C(CCCCCCCCc1ccc(O)cc1)c1c(O)cccc1O`, the T/C runs as follows: (dose: 6.5 mg/kg/injection, schedule: Q01DX009 (ip), vehicle: Klucel (hydroxypropylcellulose) (HPC)) 101 % of control; (dose: 13.0 mg/kg/injection, schedule: Q01DX009 (ip), vehicle: Klucel (hydroxypropylcellulose) (HPC)) 108 % of control; (dose: 26.0 mg/kg/injection, schedule: Q01DX009 (ip), vehicle: Klucel (hydroxypropylcellulose) (HPC)) 95 % of control; (dose: 52.0 mg/kg/injection, schedule: Q01DX009 (ip), vehicle: Klucel (hydroxypropylcellulose) (HPC)) 105 % of control.

Consider `CS(=O)(=O)Oc1ccc[nH]c1=O`, for which the T/C runs as follows: (dose: 6.25 mg/kg/injection, schedule: Q01DX009 (ip), vehicle: saline) 110 % of control; (dose: 12.5 mg/kg/injection, schedule: Q01DX009 (ip), vehicle: Klucel (hydroxypropylcellulose) (HPC)) 93 % of control; under setting [11], 121 % of control; under setting [13], 103 % of control; (dose: 25.0 mg/kg/injection, schedule: Q01DX009 (ip), vehicle: saline) 115 % of control; under setting [7], 104 % of control. For the same molecule, the T/C under setting [12] is 118 % of control; the T/C under setting [8] is 97 % of control; the T/C under setting [1] was 109 % of control; the T/C under setting [9] is 98 % of control; the T/C under setting [10] is 97 % of control.

For `CCCOP(=O)(CCl)OCCC`, the T/C runs as follows: under setting [1], 90 % of control; under setting [3], 95 % of control; under setting [4], 109 % of control.
